# Test results from patent US12209102B2, “Heterocyclic compounds and uses thereof” (Kumquat Biosciences Inc., priority 2022, dated 2025).
# Assays:
# [1] = target: T1, K-Ras G12V (Homo sapiens, UniProt P01116, G12V); experiment: HTRF resonance energy transfer assay, K-Ras G12V / SOS1 interaction; format: biochemical; details: HTRF assay of Example 5; read-out: IC50 against K-Ras G12V
# T1 construct: made in house; host or cells: E. coli BL21 (DE3)
# Procedure, shortened: (§1)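 Read-out: HTRF 665/620 nm ratio (excitation 337 nm) after roughly 10 min or longer incubation, used to derive IC50. Donor anti-GST-Eu on GST-K-Ras; acceptor anti-6His-XL665 on His-hSOS1. Duplicate dose series from 10 μM down to 0.01 μM.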
# [2] = system: SW620 cells; experiment: Ras cellular assay, growth of cells with K-Ras G12V mutation (CellTiter-Glo); format: cell-based; details: Homo sapiens, SW-620; cell growth, Example 9, G12V mutation; read-out: IC50 against SW620 cells
# Procedure, shortened: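 SW620 (K-Ras G12V) cells, e.g. 800/well in RPMI-1640 with 10% heat-inactivated FBS on standard or ultra-low attachment plates, were dosed the day after plating with e.g. a 10-point 3-fold series. Viability by CellTiter-Glo luminescence about 6 days later; IC50 from four-parameter fit.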
# [3] = target: T2, K-Ras G12S (Homo sapiens, UniProt P01116, G12S); experiment: HTRF resonance energy transfer assay, K-Ras G12S / SOS1 interaction; format: biochemical; details: HTRF assay of Example 5; read-out: IC50 against K-Ras G12S
# T2 construct: made in house; host or cells: E. coli BL21 (DE3)
# Procedure, shortened: as §1
# [4] = target: T3, K-Ras WT (Homo sapiens, UniProt P01116); experiment: HTRF resonance energy transfer assay, K-Ras WT / SOS1 interaction; format: biochemical; details: HTRF assay of Example 5; read-out: IC50 against K-Ras WT
# T3 construct: made in house; host or cells: E. coli BL21 (DE3)
# Procedure, shortened: as §1
# [5] = system: GP2D cells; experiment: Ras cellular assay, growth of cells with K-Ras G12D mutation (CellTiter-Glo); format: cell-based; details: cell growth, Example 9, G12D mutation, read-out: IC50 against GP2D cells
# [6] = system: A549 cells; experiment: Ras cellular assay, growth of cells with K-Ras G12S mutation (CellTiter-Glo); format: cell-based; details: Homo sapiens, cell growth, Example 9, G12S mutation, read-out: IC50 against A549 cells
# Procedure, shortened: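 A549 cells (K-Ras G12S) in RPMI-1640 with 10% heat-inactivated FBS, seeded e.g. 800 per well in standard or ultra-low-attachment 384-well plates, treated next day with a dilution series (e.g. 10-point, 3-fold). Viability by CellTiter-Glo luminescence about 6 days later; IC50 from four-parameter fit.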
# [7] = target: T4, K-Ras G12D (Homo sapiens, UniProt P01116, G12D); experiment: HTRF resonance energy transfer assay, K-Ras G12D / SOS1 interaction; format: biochemical; details: HTRF assay of Example 5; read-out: IC50 against K-Ras G12D
# T4 construct: made in house; host or cells: E. coli BL21 (DE3)
# Procedure, shortened: as §1
# T4 sequence (P01116 1-188 isoform P01116-2 G12D): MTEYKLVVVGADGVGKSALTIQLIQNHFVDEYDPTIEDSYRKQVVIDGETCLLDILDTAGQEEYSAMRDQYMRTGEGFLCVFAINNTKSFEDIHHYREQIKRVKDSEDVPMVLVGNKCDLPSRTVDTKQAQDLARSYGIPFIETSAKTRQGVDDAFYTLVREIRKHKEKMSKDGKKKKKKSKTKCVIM
# T2 sequence (P01116 1-188 isoform P01116-2 G12S): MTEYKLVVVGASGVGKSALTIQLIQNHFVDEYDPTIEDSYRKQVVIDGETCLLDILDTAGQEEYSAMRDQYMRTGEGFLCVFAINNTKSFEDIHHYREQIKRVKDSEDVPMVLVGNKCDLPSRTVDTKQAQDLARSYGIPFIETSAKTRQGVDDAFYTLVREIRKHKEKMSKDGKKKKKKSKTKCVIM
# T3 sequence (P01116 1-188 isoform P01116-2): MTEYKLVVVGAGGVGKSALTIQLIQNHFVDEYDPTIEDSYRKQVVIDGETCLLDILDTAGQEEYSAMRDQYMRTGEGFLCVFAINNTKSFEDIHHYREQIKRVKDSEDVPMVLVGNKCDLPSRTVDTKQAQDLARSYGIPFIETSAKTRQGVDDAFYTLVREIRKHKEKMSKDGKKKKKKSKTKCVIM
# T1 sequence (P01116 1-188 isoform P01116-2 G12V): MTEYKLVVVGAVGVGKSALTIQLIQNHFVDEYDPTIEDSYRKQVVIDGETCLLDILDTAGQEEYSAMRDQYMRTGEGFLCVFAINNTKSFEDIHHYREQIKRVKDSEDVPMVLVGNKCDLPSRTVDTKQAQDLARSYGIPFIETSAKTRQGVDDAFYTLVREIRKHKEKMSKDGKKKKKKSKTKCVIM
SMILES,IC50 [1] [nM],IC50 [2] [nM],IC50 [3] [nM],IC50 [4] [nM],IC50 [5] [nM],IC50 [6] [nM],IC50 [7] [nM]
"CC(C)(C#N)CN1CCOc2c(Cl)c(-c3ccc(F)c4sc(N)c(C#N)c34)c(F)c3nc(OC[C@@]45CCCN4C[C@H](F)C5)nc1c23 [Compound 1048, 2-amino-4-(8-chloro-4-(2-cyano-2-methylpropyl)-10-fluoro-2-(((2R,7aS)-2-fluorotetrahydro-1H-pyrrolizin-7a(5H)-yl)methoxy)-5,6-dihydro-4H-[1,4]oxazepino[5,6,7-de]quinazolin-9-yl)-7-fluorobenzo[b]thiophene-3-carbonitrile]",< 100,< 5000,< 100,< 100,< 500,< 5000,< 100
"N#Cc1c(N)sc2c(F)ccc(-c3c(Cl)c4c5c(nc(OC[C@@]67CCCN6C[C@H](F)C7)nc5c3F)N(C3CCN(C=O)C3)CCO4)c12 (stereo partly drawn) [Compound 1052, 2-amino-4-(8-chloro-10-fluoro-2-(((2R,7aS)-2-fluorotetrahydro-1H-pyrrolizin-7a(5H)-yl)methoxy)-4-(1-formylpyrrolidin-3-yl)-5,6-dihydro-4H-[1,4]oxazepino[5,6,7-de]quinazolin-9-yl)-7-fluorobenzo[b]thiophene-3-carbonitrile]",< 100,< 5000,< 100,< 100,< 500,< 5000,< 100
"N#Cc1c(N)sc2c(F)ccc(-c3c(Cl)c4c5c(nc(OC[C@@]67CCCN6C[C@H](F)C7)nc5c3F)N(CC(F)F)[C@@H](C(F)F)CO4)c12 [Compound 1057, 2-amino-4-((5R)-8-chloro-4-(2,2-difluoroethyl)-5-(difluoromethyl)-10-fluoro-2-(((2R,7aS)-2-fluorotetrahydro-1H-pyrrolizin-7a(5H)-yl)methoxy)-5,6-dihydro-4H-[1,4]oxazepino[5,6,7-de]quinazolin-9-yl)-7-fluorobenzo[b]thiophene-3-carbonitrile]",< 100,< 5000,< 100,< 100,< 500,< 5000,< 100
"N#Cc1c(N)sc2c(F)ccc(-c3c(Cl)c4c5c(nc(OC[C@@]67CCCN6C[C@H](F)C7)nc5c3F)N(C3(C(F)F)CC3)CCO4)c12 [Compound 1060, 2-amino-4-(8-chloro-4-(1-(difluoromethyl)cyclopropyl)-10-fluoro-2-(((2R,7aS)-2-fluorotetrahydro-1H-pyrrolizin-7a(5H)-yl)methoxy)-5,6-dihydro-4H-[1,4]oxazepino[5,6,7-de]quinazolin-9-yl)-7-fluorobenzo[b]thiophene-3-carbonitrile]",< 100,< 5000,< 100,< 100,< 500,< 5000,< 100
"COCCN1CCOc2c(Cl)c(-c3ccc(F)c4sc(N)c(C#N)c34)c(F)c3nc(OC[C@@]45CCCN4C[C@H](F)C5)nc1c23 [Compound 1061, 2-amino-4-(8-chloro-10-fluoro-2-(((2R,7aS)-2-fluorotetrahydro-1H-pyrrolizin-7a(5H)-yl)methoxy)-4-(2-methoxyethyl)-5,6-dihydro-4H-[1,4]oxazepino[5,6,7-de]quinazolin-9-yl)-7-fluorobenzo[b]thiophene-3-carbonitrile]",< 100,< 5000,< 100,< 100,< 500,< 5000,< 100
"CN(C)C1(CN2CCOc3c(Cl)c(-c4ccc(F)c5sc(N)c(C#N)c45)c(F)c4nc(OC[C@@]56CCCN5C[C@H](F)C6)nc2c34)CCCC1 [Compound 1062, 2-amino-4-(8-chloro-4-((1-(dimethylamino)cyclopentyl)methyl)-10-fluoro-2-(((2R,7aS)-2-fluorotetrahydro-1H-pyrrolizin-7a(5H)-yl)methoxy)-5,6-dihydro-4H-[1,4]oxazepino[5,6,7-de]quinazolin-9-yl)-7-fluorobenzo[b]thiophene-3-carbonitrile]",< 100,< 5000,< 100,< 100,< 500,< 5000,< 100
"N#Cc1c(N)sc2c(F)ccc(-c3c(Cl)c4c5c(nc(OC[C@@]67CCCN6C[C@H](F)C7)nc5c3F)N(C3CCN(C(=O)C5CCO5)C3)CCO4)c12 (stereo partly drawn) [Compound 1064, 2-amino-4-(8-chloro-10-fluoro-2-(((2R,7aS)-2-fluorotetrahydro-1H-pyrrolizin-7a(5H)-yl)methoxy)-4-(1-(oxetane-2-carbonyl)pyrrolidin-3-yl)-5,6-dihydro-4H-[1,4]oxazepino[5,6,7-de]quinazolin-9-yl)-7-fluorobenzo[b]thiophene-3-carbonitrile]",< 100,< 5000,< 100,< 100,< 500,< 5000,< 100
"C[C@@H](O)[C@H]1COc2c(Cl)c(-c3ccc(F)c4sc(N)c(C#N)c34)c(F)c3nc(OC[C@@]45CCCN4C[C@H](F)C5)nc(c23)N1CC(F)F [Compound 1080, 2-amino-4-((5R)-8-chloro-4-(2,2-difluoroethyl)-10-fluoro-2-(((2R,7aS)-2-fluorotetrahydro-1H-pyrrolizin-7a(5H)-yl)methoxy)-5-((R)-1-hydroxyethyl)-5,6-dihydro-4H-[1,4]oxazepino[5,6,7-de]quinazolin-9-yl)-7-fluorobenzo[b]thiophene-3-carbonitrile]",< 100,< 5000,< 100,< 100,< 500,< 5000,< 100
"N#Cc1c(N)sc2c(F)ccc(-c3c(Cl)c4c5c(nc(OC[C@@]67CCCN6C[C@H](F)C7)nc5c3F)N([C@H]3CCN(C=O)C3)CCO4)c12 [Compound 1095, 2-amino-4-(8-chloro-10-fluoro-2-(((2R,7aS)-2-fluorotetrahydro-1H-pyrrolizin-7a(5H)-yl)methoxy)-4-((S)-1-formylpyrrolidin-3-yl)-5,6-dihydro-4H-[1,4]oxazepino[5,6,7-de]quinazolin-9-yl)-7-fluorobenzo[b]thiophene-3-carbonitrile]",< 100,< 5000,< 100,< 100,< 500,< 5000,< 100
"CC(F)(F)CN1CCOc2c(Cl)c(-c3ccc(F)c4sc(N)c(C#N)c34)c(F)c3nc(OC[C@@]45CCCN4C[C@H](F)C5)nc1c23 [Compound 1108, 2-amino-4-(8-chloro-4-(2,2-difluoropropyl)-10-fluoro-2-(((2R,7aS)-2-fluorotetrahydro-1H-pyrrolizin-7a(5H)-yl)methoxy)-5,6-dihydro-4H-[1,4]oxazepino[5,6,7-de]quinazolin-9-yl)-7-fluorobenzo[b]thiophene-3-carbonitrile]",< 100,< 5000,< 100,< 100,< 500,< 5000,< 100
"CO[C@H](C)C(=O)N1CCC(N2CCOc3c(Cl)c(-c4ccc(F)c5sc(N)c(C#N)c45)c(F)c4nc(OC[C@@]56CCCN5C[C@H](F)C6)nc2c34)C1 (stereo partly drawn) [Compound 1110, 2-amino-4-(8-chloro-10-fluoro-2-(((2R,7aS)-2-fluorotetrahydro-1H-pyrrolizin-7a(5H)-yl)methoxy)-4-(1-((R)-2-methoxypropanoyl)pyrrolidin-3-yl)-5,6-dihydro-4H-[1,4]oxazepino[5,6,7-de]quinazolin-9-yl)-7-fluorobenzo[b]thiophene-3-carbonitrile]",< 100,< 5000,< 100,< 100,< 500,< 5000,< 100
"CN1c2nc(OC[C@@]34CCCN3C[C@H](F)C4)nc3c(F)c(-c4ccc(F)c5sc(N)c(C#N)c45)c(Cl)c(c23)OC[C@@H]1CN [Compound 1113, 2-amino-4-((5S)-5-(aminomethyl)-8-chloro-10-fluoro-2-(((2R,7aS)-2-fluorotetrahydro-1H-pyrrolizin-7a(5H)-yl)methoxy)-4-methyl-5,6-dihydro-4H-[1,4]oxazepino[5,6,7-de]quinazolin-9-yl)-7-fluorobenzo[b]thiophene-3-carbonitrile]",< 100,< 5000,< 100,< 100,< 500,< 5000,< 100
